Patent publication EP4644377A1, “LIPID COMPOUND FOR GENE DELIVERY AND LIPID NANOPARTICLE COMPRISING SAME” (NANJING CYBERNAX BIOMEDICAL TECHNOLOGY CO., LTD., priority 2022, dated 2024)

Tested on: not listed separately
Assay: Particle size detection of LNP (Brookhaven NanoBrook Omni, DLS)
Format: physicochemical
Conditions: LNPs after coating mRNA (luciferase)
Method: Step 1. Preparation of a lipid solution and a nucleic acid solution: unless otherwise specified, all aqueous solutions involved in examples were prepared from deionized water without nucleases. An ionizable lipid, a phospholipid (disaturated phosphatidylcholine (DSPC) or dioleoylphosphatidylethanolamine (DOPE)), cholesterol and a PEG lipid (DMG-PEG2000) were mixed in a molar ratio of 50/10/38.5/1.5 (containing DSPC, formulation 1) or 36.5/16/46.5/2.5 (containing DOPE, formulation 2) and dissolved into an ethanol solution. Meanwhile, a nucleic acid (a mass ratio of ionizable lipid/nucleic acid was 10/1) was dissolved into a citrate buffer solution of pH=3, so that a final volume ratio of the ethanol solution to the citrate solution was 1/3.
Step 2. Preparation of LNP by mixing the lipid solution with the nucleic acid solution: the lipid ethanol solution and the nucleic acid aqueous solution that were prepared in Step 1 were respectively put into a sterile syringe and placed in a Precision Nanosystem Ignite instrument, the extrusion flow speeds of the ethanol solution and the water phase solution were respectively set as 3 ml/min and 9 ml/min in instrument program settings. A microfluidic chip was inserted into the instrument and LNP preparation was initiated, and then a solution mixed by the chip was collected.
Step 2.1. Preparation of an LNP solution coating nucleic acid in a porous plate: a solution of an ionizable lipid, a phospholipid (DSPC or DOPE), cholesterol and a PEG lipid (DMG-PEG2000) in ethanol was added into each well of a 96-well deep plate, so that a molar ratio of four component lipids in each well was 50/10/38.5/1.5 (containing DSPC, formulation 1) or 36.5/16/46.5/2.5 (containing DOPE, formulation 2). Then, a citrate buffer solution (pH=3, the mass of nucleic acid added into each well was 1/10 that of the ionizable lipid in this well) that was three times as ethanol in volume and dissolved with a nucleic acid molecule was quickly added into the well plate through a multi-channel pipette or an automatic liquid dispensing system and rapidly mixed, so as to obtain the LNP solution coating nucleic acid.
Step 3. Purification of the LNP solution: the LNP solution collected in Step 2 or Step 2.1 was subjected to dialysis-concentration-filtration operations, so as to obtain a final LNP solution coating nucleic acid for subsequent testing.
The LNP solution coating nucleic acid obtained in Step 3 was diluted so that the final lipid concentration was between 0.01 mg/ml and 0.1 mg/ml. The diluted solution was added into a sample reservoir, and then subjected to particle size detection in a Brookhaven NanoBrook Omni instrument.

SMILES | PDI | Particle size [nm·days]
CCCCCCCCCCCCCC(=O)N(CCCN(C)CCO)C(C(=O)NCCCCCCCCCCCC)C(C)(C)C (stereo not shown) [Lipid 189] | 0.19 | 188.99 ± 4.55
CCCCCCCCC(CC)OC(=O)CCCCCCCNC(=O)C(N(CCCN(C)C)C(=O)CCCCCCC(=O)OC(CC)CCCCCCCC)C(C)(C)C (stereo not shown) [Lipid 401] | 0.19 | 93.6 ± 0.84
CCCCCCCC/C=C\CCCCCCCCNC(=O)C(N(CCCN(C)C)C(=O)CCCCCCC/C=C\C[C@H](O)CCCCCC)C(C)(C)C (stereo partly shown) [Lipid 16] | 0.26 | 128.73 ± 1.97
CCCCCCCC/C=C\CCCCCCCCOC(=O)CCC(=O)N(CCCN(CC)CC)C(C(=O)NCCCC(=O)OCCCCCCCC)C(C)(C)C (stereo not shown) [Lipid 226] | 0.19 | 207.34 ± 2.23
CCCCCCCCC(CCCCCC)COC(=O)CCCCCCC(=O)N(CCCN(C)C)C(C(=O)NCCCCCCOC(=O)C(CCCCCC)CCCCCCCC)C(C)(C)C (stereo not shown) [Lipid 436] | 0.18 | 92.2 ± 0.47
CCCCCCCCCCCCCCNC(=O)C(N(CCCN(CC)CC)C(=O)CCCCCCCCCCCCC)C(C)(C)C (stereo not shown) [Lipid 159] | 0.22 | 136.93 ± 2.95
CCCCCCCCCCCC(=O)N(CCCN(C)CCCCO)C(C(=O)NCCCCCCCC(=O)OC(CCCCCCCC)CCCCCCCC)C(C)(C)C (stereo not shown) [Lipid 240] | 0.19 | 204.35 ± 3.72
CC/C=C\C/C=C\C/C=C\C/C=C\C/C=C\CCCC(=O)N(CCCN(CC)CC)C(C(=O)NCCCCCCOC(=O)C(CCCCCC)CCCCCCCC)C(C)(C)C (stereo not shown) [Lipid 295] | 0.16 | 162.45 ± 2.28
CCCCCCCC/C=C\CCCCCCCCNC(=O)C(N(CCCN(C)C)C(=O)OCCCCCCCCCCCC)C(C)(C)C (stereo not shown) [Lipid 327] | 0.17 | 104.99 ± 1.21
CCCCCCCCCCCCCC(=O)N(CCCN(C)C)C(C(=S)NCCCCCCCC(=O)OC(CCCCCCCC)CCCCCCCC)C(C)(C)C (stereo not shown) [Lipid 317] | 0.23 | 162.23 ± 0.89
CCCCCCCCC(CCCCCC)C(=O)OCCCCCCNC(=O)C(N(CCCN(CC)CC)C(=O)CCCCCCC/C=C\C[C@H](O)CCCCCC)C(C)(C)C (stereo partly shown) [Lipid 294] | 0.26 | 150.04 ± 0.93
CCCCCCCCCCCCCCNC(=O)C(N(CCCN(CC)CC)C(=O)CCCCCCC/C=C\C[C@H](O)CCCCCC)C(C)(C)C (stereo partly shown) [Lipid 161] | 0.27 | 253.06 ± 4.58
CCCCCCCC/C=C\CCCCCCCCNC(=O)C(N(CCCN(C)C)C(=O)NCCCCCCCCCCCC)C(C)(C)C (stereo not shown) [Lipid 326] | 0.18 | 111.42 ± 4.09
CCCCC/C=C\C/C=C\CCCCCCCC(=O)N(CCCN(C)C)C(C(=O)NCCCCCCCC(=O)OC(CCCCCCCC)CCCCCCCC)C1CC1 (stereo not shown) [Lipid 936] | 0.19 | 160.5 ± 2.71

Tested on: C57Bl/6 mice
Assay: Luciferase mRNA delivery in mice, IVIS chemiluminescence
Format: in vivo
Conditions: LNP formulation 2 (SM102: formulation 1); luciferase mRNA 0.25 mg/kg, tail vein, C57Bl/6 mice; whole body signal 6 h after LNP, 10 min after D-luciferin 150 mg/kg i.p.
Method: The animal experiments were reviewed and approved by the Ethics Committee of Zhejiang Medical College and the Ethics Committee of Zhejiang University of Technology. 6- to 8-week-old male C57Bl/6 mice were randomly grouped with 3 mice in each group. The mice in each group received a lipid nanoparticle coating mRNA expressing a luciferase via tail vein injection at a dose of 0.25 mg/kg mouse body weight (calculated by the mass of coated mRNA). […] The mRNA delivery effect of the lipid nanoparticle is quantitatively compared through a total chemiluminiscence quantity (Total Flux p/s) of a mouse whole body within unit time (shown in Table 5).
Table 13 and Table 14 show whole body chemiluminescent signals when LNPs (formulation 2) composed of the lipids in some examples deliver Flue mRNA in mice. The delivery dose of Flue mRNA was 0.25 mg/kg. 6 h after LNP injection, 150 mg/kg of D-luciferin was intraperitoneally injected into the mice, and then the whole body chemiluminescent signals were collected in the IVIS imaging system after 10 min. […]

SMILES | Chemiluminescent signal (p/s)
CCCCCCCCCCCCCC(=O)N(CCCN(C)CCO)C(C(=O)NCCCCCCCCCCCC)C(C)(C)C (stereo not shown) [Lipid 189] | 3.32E+08
CCCCCCCCCCCC(=O)N(CCCN(C)C)C(C(=O)NCCCCCCCC(=O)OC(CCCCCCCC)CCCCCCCC)C(C)(C)C (stereo not shown) [Lipid 173] | 5.48E+08
CCCCCCCC/C=C\CCCCCCCCNC(=O)C(N(CCCN(C)C)C(=O)CCCCCCC/C=C\C[C@H](O)CCCCCC)C(C)(C)C (stereo partly shown) [Lipid 16] | 6.94E+09
CCCCC/C=C\C/C=C\CCCCCCCC(=O)N(CCCN(CC)CC)C(C(=O)NCCCOC(=O)CCCCCCCC)C(C)(C)C (stereo not shown) [Lipid 170] | 5.52E+08
CCCCCCCC/C=C\CCCCCCCCOC(=O)CCC(=O)N(CCCN(CC)CC)C(C(=O)NCCCC(=O)OCCCCCCCC)C(C)(C)C (stereo not shown) [Lipid 226] | 9.30E+09
CCCCCCCCCCCCCCNC(=O)C(N(CCCN(CC)CC)C(=O)CCCCCCCCCCCCC)C(C)(C)C (stereo not shown) [Lipid 159] | 2.30E+09
CCCCCCCCCCCC(=O)N(CCCN(C)CCCCO)C(C(=O)NCCCCCCCC(=O)OC(CCCCCCCC)CCCCCCCC)C(C)(C)C (stereo not shown) [Lipid 240] | 5.76E+08
CCCCC/C=C\C/C=C\CCCCCCCC(=O)N(CCCN(C)C)C(C(=O)NCCCC(=O)OCCCCCCCC/C=C\CCCCCCCC)C(CC)CC (stereo not shown) [Lipid 108] | 4.23E+09
CCCCC/C=C\C/C=C\CCCCCCCC(=O)N(CCCN(C)C)C(C(=O)NCCCCCCOC(=O)C(CCCCCC)CCCCCCCC)C(C)(C)C (stereo not shown) [Lipid 285] | 2.91E+10
CCCCCCCC/C=C\CCCCCCCCNC(=O)C(N(CCCN(CC)CC)C(=O)CCCCCCCCCCC)C(C)(C)C (stereo not shown) [Lipid 30] | 1.35E+08
CCCCCCCCCCCCCCNC(=O)C(N(CCN(C)CCO)C(=O)CCCCCCCCCCCCC)C(C)(C)C (stereo not shown) [Lipid 194] | 3.84E+09
CCCCCCCC/C=C\CCCCCCCCNC(=O)C(C1CCCCC1)N(CCN1CCN(C)CC1)C(=O)CCCCCCCCCCC (stereo not shown) [Lipid 60] | 4.10E+07
CCCCCCCCC(CCCCCC)C(=O)OCCCCCCNC(=O)C(N(CCCN(C)C)C(=O)CCCCCCC/C=C\C[C@H](O)CCCCCC)C(C)(C)C (stereo partly shown) [Lipid 286] | 4.78E+10
CCCCCCCCCCCC(=O)N(CCCN(CC)CC)C(C(=O)NCCCCCCCC(=O)OC(CCCCCCCC)CCCCCCCC)C(C)(C)C (stereo not shown) [Lipid 178] | 9.50E+08
CC/C=C\C/C=C\C/C=C\C/C=C\C/C=C\CCCC(=O)N(CCCN(C)C)C(C(=O)NCCCCCCOC(=O)C(CCCCCC)CCCCCCCC)C(C)(C)C (stereo not shown) [Lipid 287] | 1.23E+10
CCCCCCCCC(=O)OCCCNC(=O)C(N(CCCN(C)C)C(=O)CCCCCCC/C=C\C[C@H](O)CCCCCC)C(C)(C)C (stereo partly shown) [Lipid 166] | 2.98E+09
CCCCCCCCC(CCCCCCCC)OC(=O)CCCCCCCNC(=O)C(N(CCCN(CC)CC)C(=O)CCCCCCC/C=C\C[C@H](O)CCCCCC)C(C)(C)C (stereo partly shown) [Lipid 181] | 3.86E+09
CCCCCCCCCCCCCC(=O)N(CCCN(CC)CC)C(C(=O)NCCCCCCCC(=O)OC(CCCCCCCC)CCCCCCCC)C(C)(C)C (stereo not shown) [Lipid 179] | 2.60E+09
CCCCCCCC/C=C\CCCCCCCC(=O)OCCCNC(=O)C(C(CC)CC)N(CCCN(CC)CC)C(=O)CCCCCCCCCCC (stereo not shown) [Lipid 113] | 3.39E+08
CCCCCCCCCCCCCCNC(=O)C(N(CCCN(CC)CC)C(=O)CCCCCCCCCCC)C(C)(C)C (stereo not shown) [Lipid 158] | 3.83E+08
CCCCCCCCC(CCCCCCCC)OC(=O)CCCCCCCNC(=O)C(N(CCCN(C)C)C(=O)CCCCCCC/C=C\C[C@H](O)CCCCCC)C(C)(C)C (stereo partly shown) [Lipid 176] | 9.19E+08
CCCCCCCCCCCCNC(=O)C(N(CCCN(C)CCO)C(=O)CCCCCCCCCCC)C(C)(C)C (stereo not shown) [Lipid 188] | 1.92E+10

Same assay, conditions: LNPs (formulation 2), Flue mRNA 0.25 mg/kg, tail vein injection; whole body signal 6 h after LNP injection, 10 min after 150 mg/kg D-luciferin i.p.

SMILES | Chemiluminescent signal (p/s)
CCCCCCCCC(CC)OC(=O)CCCCCCCNC(=O)C(N(CCCN(C)C)C(=O)CCCCCCC(=O)OC(CC)CCCCCCCC)C(C)(C)C (stereo not shown) [Lipid 401] | 5.92E+10
CCCCCCCCCCCCCC(=O)N(CCCN(C)C)C(C)C(=O)NCCCCCCOC(=O)C(CCCCCC)CCCCCCCC (stereo not shown) [Lipid 1039] | 3.31E+06
CCCCC/C=C\C/C=C\CCCCCCCC(=O)N(CCCN(C)C)C(C(=O)NCCCCCCCC(=O)OC(CCCCCCCC)CCCCCCCC)C1CCC1 (stereo not shown) [Lipid 937] | 1.01E+08
CCCCCCCCCCCCCC(=O)N(CCCN(C)C)C(CC)C(=O)NCCCCCCOC(=O)C(CCCCCC)CCCCCCCC (stereo not shown) [Lipid 1041] | 3.31E+06
CCCCC/C=C\C/C=C\CCCCCCCC(=O)N(CCCN(C)C)C(CC)C(=O)NCCCCCCCC(=O)OC(CCCCCCCC)CCCCCCCC (stereo not shown) [Lipid 950] | 3.41E+07
